Legend:
Assay type in all cases: functional
Prevotella baroniae = test: Antimicrobial activity in Prevotella baroniae by CLSI agar dilution method in presence of clavulanate; conditions: Segatella baroniae
Hoylesella oralis = test: Antimicrobial activity in Prevotella oralis group by CLSI agar dilution method in presence of clavulanate
Prevotella veroralis = test: Antimicrobial activity in Prevotella veroralis by CLSI agar dilution method in presence of clavulanate
Prevotella bergensis = test: Antimicrobial activity in Prevotella bergensis by CLSI agar dilution method in presence of clavulanate; conditions: Hallella bergensis
Prevotella salivae = test: Antimicrobial activity in Prevotella salivae by CLSI agar dilution method in presence of clavulanate; conditions: Segatella salivae
Hoylesella loescheii = test: Antimicrobial activity in Prevotella loescheii by CLSI agar dilution method in presence of clavulanate
Prevotella sp. = test: Antimicrobial activity in Prevotella sp.by CLSI agar dilution method in presence of clavulanate
[1] = tested on: Porphyromonas asaccharolytica; test: Antimicrobial activity in Porphyromonas asaccharolytica by CLSI agar dilution method in presence of clavulanate
Fusobacterium nucleatum = test: Antimicrobial activity in Fusobacterium nucleatum by CLSI agar dilution method in presence of clavulanate
[2] = tested on: Fusobacterium necrophorum; test: Antimicrobial activity in Fusobacterium necrophorum by CLSI agar dilution method in presence of clavulanate
Fusobacterium mortiferum = test: Antimicrobial activity in Fusobacterium mortiferum by CLSI agar dilution method in presence of clavulanate
Fusobacterium varium = test: Antimicrobial activity in Fusobacterium varium by CLSI agar dilution method in presence of clavulanate
Finegoldia magna = test: Antimicrobial activity in Finegoldia magna by CLSI agar dilution method in presence of clavulanate
Parvimonas micra = test: Antimicrobial activity in Micromonas micros by CLSI agar dilution method in presence of clavulanate
[3] = tested on: Peptostreptococcus anaerobius; test: Antimicrobial activity in Peptostreptococcus anaerobius by CLSI agar dilution method in presence of clavulanate
[4] = tested on: Peptoniphilus asaccharolyticus; test: Antimicrobial activity in Peptoniphilus asaccharolyticus by CLSI agar dilution method in presence of clavulanate
Anaerococcus tetradius = test: Antimicrobial activity in Anaerococcus tetradius by CLSI agar dilution method in presence of clavulanate
Anaerococcus prevotii = test: Antimicrobial activity in Anaerococcus prevotii by CLSI agar dilution method in presence of clavulanate
Lactobacillus = test: Antimicrobial activity in Lactobacillus by CLSI agar dilution method in presence of clavulanate
Bifidobacterium = test: Antimicrobial activity in Bifidobacterium by CLSI agar dilution method in presence of clavulanate
Cutibacterium acnes = test: Antimicrobial activity in Propionibacterium acnes by CLSI agar dilution method in presence of clavulanate
Actinomyces = test: Antimicrobial activity in Actinomyces by CLSI agar dilution method in presence of clavulanate
Eggerthella lenta = test: Antimicrobial activity in Eggerthella lenta by CLSI agar dilution method in presence of clavulanate
Clostridium perfringens = test: Antimicrobial activity in Clostridium perfringens by CLSI agar dilution method in presence of clavulanate
Clostridioides difficile = test: Antimicrobial activity in Clostridium difficile by CLSI agar dilution method in presence of clavulanate
Clostridium sp. = test: Antimicrobial activity in Clostridium sp. by CLSI agar dilution method in presence of clavulanate
Clostridium tertium = test: Antimicrobial activity in Clostridium tertium by CLSI agar dilution method in presence of clavulanate
Thomasclavelia ramosa = test: Antimicrobial activity in Clostridium ramosum by CLSI agar dilution method in presence of clavulanate
Clostridium cadaveris = test: Antimicrobial activity in Clostridium cadaveris by CLSI agar dilution method in presence of clavulanate
[5] = tested on: Paraclostridium bifermentans; test: Antimicrobial activity in Clostridium bifermentans by CLSI agar dilution method in presence of clavulanate
[Clostridium] innocuum = Antimicrobial activity in Clostridium innocuum by CLSI agar dilution method in presence of clavulanate
[6] = tested on: Paeniclostridium sordellii; test: Antimicrobial activity in Clostridium sordellii by CLSI agar dilution method in presence of clavulanate; conditions: Paraclostridium sordellii
Clostridium butyricum = test: Antimicrobial activity in Clostridium butyricum by CLSI agar dilution method in presence of clavulanate
[7] = tested on: Enterocloster clostridioformis; test: Antimicrobial activity in Clostridium clostridioforme by CLSI agar dilution method in presence of clavulanate
Bacteroides fragilis = test: Antimicrobial activity in Bacteroides fragilis by CLSI agar dilution method in presence of clavulanate
[8] = tested on: Bacteroides thetaiotaomicron; test: Antimicrobial activity in Bacteroides thetaiotaomicron by CLSI agar dilution method in presence of clavulanate
Bacteroides ovatus = test: Antimicrobial activity in Bacteroides ovatus by CLSI agar dilution method in presence of clavulanate
Phocaeicola vulgatus = test: Antimicrobial activity in Bacteroides vulgatus by CLSI agar dilution method in presence of clavulanate
[9] = tested on: Parabacteroides distasonis; test: Antimicrobial activity in Bacteroides distasonis by CLSI agar dilution method in presence of clavulanate
Bacteroides uniformis = test: Antimicrobial activity in Bacteroides uniformis by CLSI agar dilution method in presence of clavulanate
Bacteroides stercoris = test: Antimicrobial activity in Bacteroides stercoris by CLSI agar dilution method in presence of clavulanate
Prevotella bivia = test: Antimicrobial activity in Prevotella bivia by CLSI agar dilution method in presence of clavulanate
Prevotella buccae = test: Antimicrobial activity in Prevotella buccae by CLSI agar dilution method in presence of clavulanate; conditions: Segatella buccae
[10] = tested on: Prevotella melaninogenica; test: Antimicrobial activity in Prevotella melaninogenica by CLSI agar dilution method in presence of clavulanate
Prevotella denticola = test: Antimicrobial activity in Prevotella denticola by CLSI agar dilution method in presence of clavulanate
Prevotella intermedia = test: Antimicrobial activity in Prevotella intermedia by CLSI agar dilution method in presence of clavulanate
Prevotella nigrescens = test: Antimicrobial activity in Prevotella nigrescens by CLSI agar dilution method in presence of clavulanate
Prevotella corporis = test: Antimicrobial activity in Prevotella corporis by CLSI agar dilution method in presence of clavulanate
Prevotella disiens = test: Antimicrobial activity in Prevotella disiens by CLSI agar dilution method in presence of clavulanate
Tissierella praeacuta = test: Antimicrobial activity in Clostridium hastiforme by CLSI agar dilution method in presence of clavulanate
Porphyromonas gingivalis = test: Antimicrobial activity in Porphyromonas gingivalis by CLSI agar dilution method in presence of clavulanate

Work on CC1(C)S[C@@H]2[C@H](NC(=O)[C@H](N)c3ccc(O)cc3)C(=O)N2[C@H]1C(=O)O [AMOXICILLIN] yielded an MIC (Prevotella baroniae) of no more than 0.125 µg/mL, an MIC (Hoylesella oralis) of no more than 0.125 µg/mL and an MIC (Prevotella veroralis) of no more than 0.125 µg/mL. The MIC (Prevotella bergensis) was 0.5 µg/mL, the MIC (Prevotella salivae) was no more than 0.125 µg/mL and the MIC (Hoylesella loescheii) was 0.25 µg/mL. The MIC (Prevotella sp.) was no more than 0.125 µg/mL, the MIC [1] was no more than 0.125 µg/mL and the MIC (Fusobacterium nucleatum) was no more than 0.125 µg/mL. For the same compound, the MIC50 (Fusobacterium nucleatum) was no more than 0.125 µg/mL, the MIC90 (Fusobacterium nucleatum) was no more than 0.125 µg/mL and the MIC [2] was no more than 0.125 µg/mL. It also gave an MIC50 [2] of no more than 0.125 µg/mL, an MIC50 (Fusobacterium mortiferum) of 1 µg/mL and an MIC90 (Fusobacterium mortiferum) of 32 µg/mL. It also gave an MIC50 (Fusobacterium varium) of 2 µg/mL, an MIC90 (Fusobacterium varium) of 2 µg/mL and an MIC50 (Finegoldia magna) of 0.25 µg/mL. It also gave an MIC90 (Finegoldia magna) of 0.25 µg/mL, an MIC (Parvimonas micra) of no more than 0.125 µg/mL and an MIC50 (Parvimonas micra) of no more than 0.125 µg/mL. For the same compound, the MIC90 (Parvimonas micra) was 0.5 µg/mL, the MIC50 [3] was 0.25 µg/mL and the MIC90 [3] was 32 µg/mL. The MIC [4] was no more than 0.125 µg/mL, the MIC50 [4] was no more than 0.125 µg/mL and the MIC (Anaerococcus tetradius) was no more than 0.125 µg/mL. For the same compound, the MIC50 (Anaerococcus tetradius) was no more than 0.125 µg/mL, the MIC90 (Anaerococcus tetradius) was no more than 0.125 µg/mL and the MIC (Anaerococcus prevotii) was no more than 0.125 µg/mL. It also gave an MIC50 (Lactobacillus) of 1 µg/mL, an MIC90 (Lactobacillus) of 1 µg/mL and an MIC (Bifidobacterium) of no more than 0.125 µg/mL. It also gave an MIC50 (Bifidobacterium) of no more than 0.125 µg/mL, an MIC90 (Bifidobacterium) of 0.25 µg/mL and an MIC (Cutibacterium acnes) of no more than 0.125 µg/mL. It also gave an MIC50 (Cutibacterium acnes) of no more than 0.125 µg/mL, an MIC90 (Cutibacterium acnes) of 0.25 µg/mL and an MIC (Actinomyces) of no more than 0.125 µg/mL. It also gave an MIC50 (Actinomyces) of 0.25 µg/mL, an MIC50 (Eggerthella lenta) of 1 µg/mL and an MIC90 (Eggerthella lenta) of 1 µg/mL. The MIC (Clostridium perfringens) was no more than 0.125 µg/mL, the MIC50 (Clostridium perfringens) was no more than 0.125 µg/mL and the MIC90 (Clostridium perfringens) was no more than 0.125 µg/mL. For the same compound, the MIC50 (Clostridioides difficile) was 1 µg/mL, the MIC90 (Clostridioides difficile) was 2 µg/mL and the MIC50 (Clostridium sp.) was 0.5 µg/mL. It also gave an MIC90 (Clostridium sp.) of 0.5 µg/mL, an MIC (Clostridium tertium) of 0.5 µg/mL and an MIC50 (Clostridium tertium) of 0.5 µg/mL. The MIC (Thomasclavelia ramosa) was no more than 0.125 µg/mL, the MIC (Clostridium cadaveris) was no more than 0.125 µg/mL and the MIC [5] was 0.25 µg/mL. The MIC ([Clostridium] innocuum) was no more than 0.125 µg/mL, the MIC [6] was no more than 0.125 µg/mL and the MIC (Clostridium butyricum) was 1 µg/mL. The MIC [7] was 1 µg/mL, the MIC50 (Bacteroides fragilis) was 0.5 µg/mL and the MIC90 (Bacteroides fragilis) was 2 µg/mL. The MIC50 [8] was 1 µg/mL, the MIC90 [8] was 4 µg/mL and the MIC (Bacteroides ovatus) was 0.5 µg/mL. It also gave an MIC50 (Bacteroides ovatus) of 0.5 µg/mL, an MIC90 (Bacteroides ovatus) of 2 µg/mL and an MIC50 (Phocaeicola vulgatus) of 1 µg/mL. The MIC90 (Phocaeicola vulgatus) was 8 µg/mL, the MIC50 [9] was 4 µg/mL and the MIC90 [9] was 16 µg/mL. It also gave an MIC (Bacteroides uniformis) of 0.5 µg/mL, an MIC50 (Bacteroides uniformis) of 0.5 µg/mL and an MIC (Bacteroides stercoris) of 0.5 µg/mL. The MIC50 (Bacteroides stercoris) was 1 µg/mL, the MIC50 (Prevotella bivia) was 0.5 µg/mL and the MIC90 (Prevotella bivia) was 4 µg/mL. For the same compound, the MIC (Prevotella buccae) was no more than 0.125 µg/mL, the MIC50 (Prevotella buccae) was no more than 0.125 µg/mL and the MIC90 (Prevotella buccae) was 1 µg/mL. The MIC50 [10] was 0.25 µg/mL, the MIC90 [10] was 2 µg/mL and the MIC50 (Prevotella denticola) was 0.25 µg/mL. It also gave an MIC90 (Prevotella denticola) of 2 µg/mL, an MIC (Prevotella intermedia) of no more than 0.125 µg/mL and an MIC50 (Prevotella intermedia) of no more than 0.125 µg/mL. For the same compound, the MIC90 (Prevotella intermedia) was 0.5 µg/mL, the MIC (Prevotella nigrescens) was no more than 0.125 µg/mL and the MIC50 (Prevotella nigrescens) was no more than 0.125 µg/mL. The MIC90 (Prevotella nigrescens) was 0.5 µg/mL, the MIC (Prevotella corporis) was no more than 0.125 µg/mL and the MIC50 (Prevotella corporis) was no more than 0.125 µg/mL. The MIC (Prevotella disiens) was no more than 0.125 µg/mL, the MIC50 (Prevotella disiens) was 0.25 µg/mL and the MIC (Tissierella praeacuta) was 1 µg/mL. For the same compound, the MIC (Porphyromonas gingivalis) was no more than 0.125 µg/mL.

Source: ChEMBL document CHEMBL1649156, “Antianaerobic activity of sulopenem compared to six other agents” (2009)
